# Data as given in PubChem BioAssay (NCI).
#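 Method: 48-hour compound exposure of cells in 96-well plates, five concentrations, linear interpolation of endpoints. GI50 marks 50% less growth. The concentration for full growth arrest is given as TGI.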
# What was measured:
# Assay in all cases: NCI anticancer screen, dose series, 48 h
# 786-0 renal = test system: 786-0 renal
# KM12 colon = test system: KM12 colon
# IGROV1 ovarian = test system: IGROV1 ovarian
# NCI-H460 lung = test system: NCI-H460 lung
# NCI-H23 lung = test system: NCI-H23 lung
# A498 renal = test system: A498 renal
# COLO 205 colon = test system: COLO 205 colon
# MALME-3M melanoma = test system: MALME-3M melanoma
# U251 CNS = test system: U251 CNS
# NCI-H226 lung = test system: NCI-H226 lung
# M14 melanoma = test system: M14 melanoma
# SF-295 CNS = test system: SF-295 CNS
# UACC-62 melanoma = test system: UACC-62 melanoma
# HS 578T breast = test system: HS 578T breast
# DU-145 prostate = test system: DU-145 prostate
# SF-539 CNS = test system: SF-539 CNS
# MDA-MB-231 breast = test system: MDA-MB-231 breast
# SK-OV-3 ovarian = test system: SK-OV-3 ovarian
# RXF 393 renal = test system: RXF 393 renal
# SF-268 CNS = test system: SF-268 CNS
# HCC-2998 colon = test system: HCC-2998 colon
# SK-MEL-28 melanoma = test system: SK-MEL-28 melanoma
# OVCAR-5 ovarian = test system: OVCAR-5 ovarian
# SK-MEL-2 melanoma = test system: SK-MEL-2 melanoma
# UO-31 renal = test system: UO-31 renal
# HT29 colon = test system: HT29 colon
# SN12C renal = test system: SN12C renal
# EKVX NSCLC = test system: EKVX NSCLC
# A549 NSCLC = test system: A549 NSCLC
# UACC-257 melanoma = test system: UACC-257 melanoma
# TK-10 renal = test system: TK-10 renal
# SK-MEL-5 melanoma = test system: SK-MEL-5 melanoma
# HCT-15 colon = test system: HCT-15 colon
# CCRF-CEM leukemia = test system: CCRF-CEM leukemia
# BT-549 breast = test system: BT-549 breast
# OVCAR-3 ovarian = test system: OVCAR-3 ovarian
# MOLT-4 leukemia = test system: MOLT-4 leukemia
# HOP-92 NSCLC = test system: HOP-92 NSCLC
# HCT-116 colon = test system: HCT-116 colon
# MDA-MB-435 = test system: MDA-MB-435
# NCI/ADR-RES ovarian = test system: NCI/ADR-RES ovarian
# RPMI-8226 leukemia = test system: RPMI-8226 leukemia
# HOP-62 NSCLC = test system: HOP-62 NSCLC
# CAKI-1 renal = test system: CAKI-1 renal
# SW-620 colon = test system: SW-620 colon
# K-562 leukemia = test system: K-562 leukemia
# LOX IMVI melanoma = test system: LOX IMVI melanoma
# ACHN renal = test system: ACHN renal
# HL-60(TB) leukemia = test system: HL-60(TB) leukemia
# SNB-75 CNS = test system: SNB-75 CNS
# SNB-19 CNS = test system: SNB-19 CNS
# OVCAR-4 ovarian = test system: OVCAR-4 ovarian
# OVCAR-8 ovarian = test system: OVCAR-8 ovarian
# MCF7 breast = test system: MCF7 breast
# SR leukemia = test system: SR leukemia
# PC-3 prostate = test system: PC-3 prostate
# NCI-H522 lung = test system: NCI-H522 lung
# T-47D breast = test system: T-47D breast
compound,measurement,setting,value
COc1ccccc1N(C(C)=O)C1=C(Cl)C(=O)c2ccccc2C1=O,GI50,786-0 renal,3.15 µM
same,TGI,786-0 renal,12 µM
same,GI50,KM12 colon,1060 nM
same,TGI,KM12 colon,5.48 µM
same,GI50,IGROV1 ovarian,2820 nM
same,TGI,IGROV1 ovarian,10.3 µM
same,GI50,NCI-H460 lung,3.17 µM
same,TGI,NCI-H460 lung,12.2 µM
same,GI50,NCI-H23 lung,1650 nM
same,TGI,NCI-H23 lung,6 µM
same,GI50,A498 renal,1540 nM
same,TGI,A498 renal,7.69 µM
same,GI50,COLO 205 colon,1510 nM
same,TGI,COLO 205 colon,2840 nM
same,GI50,MALME-3M melanoma,1660 nM
same,TGI,MALME-3M melanoma,3.2 µM
same,GI50,U251 CNS,2620 nM
same,TGI,U251 CNS,11.8 µM
same,GI50,NCI-H226 lung,1510 nM
same,TGI,NCI-H226 lung,6.01 µM
same,GI50,M14 melanoma,1880 nM
same,TGI,M14 melanoma,5.91 µM
same,GI50,SF-295 CNS,2380 nM
same,TGI,SF-295 CNS,6.5 µM
same,GI50,UACC-62 melanoma,502 nM
same,TGI,UACC-62 melanoma,2920 nM
same,GI50,HS 578T breast,2700 nM
same,TGI,HS 578T breast,> 71.9 µM
same,GI50,DU-145 prostate,3.46 µM
same,TGI,DU-145 prostate,12 µM
same,GI50,SF-539 CNS,1450 nM
same,TGI,SF-539 CNS,4.77 µM
same,GI50,MDA-MB-231 breast,2030 nM
same,TGI,MDA-MB-231 breast,6.23 µM
same,GI50,SK-OV-3 ovarian,2460 nM
same,TGI,SK-OV-3 ovarian,7.33 µM
same,GI50,RXF 393 renal,1120 nM
same,TGI,RXF 393 renal,2450 nM
same,GI50,SF-268 CNS,3.19 µM
same,TGI,SF-268 CNS,12.5 µM
same,GI50,HCC-2998 colon,2230 nM
same,TGI,HCC-2998 colon,8.61 µM
same,GI50,SK-MEL-28 melanoma,2400 nM
same,TGI,SK-MEL-28 melanoma,7.03 µM
same,GI50,OVCAR-5 ovarian,2930 nM
same,TGI,OVCAR-5 ovarian,11.5 µM
same,GI50,SK-MEL-2 melanoma,1890 nM
same,TGI,SK-MEL-2 melanoma,4.57 µM
same,GI50,UO-31 renal,1030 nM
same,TGI,UO-31 renal,2560 nM
same,GI50,HT29 colon,1890 nM
same,TGI,HT29 colon,4.45 µM
same,GI50,SN12C renal,2830 nM
same,TGI,SN12C renal,12.1 µM
same,GI50,EKVX NSCLC,751 nM
same,TGI,EKVX NSCLC,6.95 µM
same,GI50,A549 NSCLC,3.43 µM
same,TGI,A549 NSCLC,13.5 µM
same,GI50,UACC-257 melanoma,2140 nM
same,TGI,UACC-257 melanoma,4.39 µM
same,GI50,TK-10 renal,1870 nM
same,TGI,TK-10 renal,3.3 µM
same,GI50,SK-MEL-5 melanoma,1190 nM
same,TGI,SK-MEL-5 melanoma,2630 nM
same,GI50,HCT-15 colon,1040 nM
same,TGI,HCT-15 colon,2610 nM
same,GI50,CCRF-CEM leukemia,1950 nM
same,TGI,CCRF-CEM leukemia,5.11 µM
same,GI50,BT-549 breast,1890 nM
same,TGI,BT-549 breast,8.25 µM
same,GI50,OVCAR-3 ovarian,1150 nM
same,TGI,OVCAR-3 ovarian,2720 nM
same,GI50,MOLT-4 leukemia,2940 nM
same,TGI,MOLT-4 leukemia,> 25.1 µM
same,GI50,HOP-92 NSCLC,304 nM
same,TGI,HOP-92 NSCLC,1850 nM
same,GI50,HCT-116 colon,760 nM
same,TGI,HCT-116 colon,2180 nM
same,GI50,MDA-MB-435,1900 nM
same,TGI,MDA-MB-435,4.55 µM
same,GI50,NCI/ADR-RES ovarian,2520 nM
same,TGI,NCI/ADR-RES ovarian,11.5 µM
same,GI50,RPMI-8226 leukemia,833 nM
same,TGI,RPMI-8226 leukemia,3.96 µM
same,GI50,HOP-62 NSCLC,3.03 µM
same,TGI,HOP-62 NSCLC,12.6 µM
same,GI50,CAKI-1 renal,1450 nM
same,TGI,CAKI-1 renal,3.3 µM
same,GI50,SW-620 colon,1060 nM
same,TGI,SW-620 colon,2550 nM
same,GI50,K-562 leukemia,2230 nM
same,TGI,K-562 leukemia,7.67 µM
same,GI50,LOX IMVI melanoma,2290 nM
same,TGI,LOX IMVI melanoma,8.08 µM
same,GI50,ACHN renal,1430 nM
same,TGI,ACHN renal,2730 nM
same,GI50,HL-60(TB) leukemia,2240 nM
same,TGI,HL-60(TB) leukemia,5.53 µM
same,GI50,SNB-75 CNS,1720 nM
same,TGI,SNB-75 CNS,7.6 µM
same,GI50,SNB-19 CNS,3.16 µM
same,TGI,SNB-19 CNS,> 40.8 µM
same,GI50,OVCAR-4 ovarian,875 nM
same,TGI,OVCAR-4 ovarian,2140 nM
same,GI50,OVCAR-8 ovarian,2720 nM
same,TGI,OVCAR-8 ovarian,> 32.2 µM
same,GI50,MCF7 breast,2400 nM
same,TGI,MCF7 breast,10.5 µM
same,GI50,SR leukemia,1780 nM
same,TGI,SR leukemia,5.16 µM
same,GI50,PC-3 prostate,1170 nM
same,TGI,PC-3 prostate,10.8 µM
same,GI50,NCI-H522 lung,330 nM
same,TGI,NCI-H522 lung,1420 nM
same,GI50,T-47D breast,382 nM
same,TGI,T-47D breast,2950 nM
